According to paper PMC9105972 (International Journal of Molecular Sciences, 2022):
Where two headings read alike, the source gives them in different places.

Columns and labels:
[1] = biological target: T1, TcAChE (Tetronarce californica, UniProt P04058); test: Pre-steady-state analysis by global fitting of full progress curves (ENZO); type: biochemical, Torpedo californica
T1 construct: TcAChE was isolated and purified as previously described; from tissue

[2] = system: AChE; conditions: cited from earlier work
[3] = biological target: human brain AChE (HuAChE); conditions: cited from earlier work
[4] = biological target: AChE from Torpedo californica (TcAChE); conditions: cited from earlier work
[5] = system: AChE; conditions: in vivo, rats, mice and rabbits; cited from earlier work

T1 sequence (P04058 22-586): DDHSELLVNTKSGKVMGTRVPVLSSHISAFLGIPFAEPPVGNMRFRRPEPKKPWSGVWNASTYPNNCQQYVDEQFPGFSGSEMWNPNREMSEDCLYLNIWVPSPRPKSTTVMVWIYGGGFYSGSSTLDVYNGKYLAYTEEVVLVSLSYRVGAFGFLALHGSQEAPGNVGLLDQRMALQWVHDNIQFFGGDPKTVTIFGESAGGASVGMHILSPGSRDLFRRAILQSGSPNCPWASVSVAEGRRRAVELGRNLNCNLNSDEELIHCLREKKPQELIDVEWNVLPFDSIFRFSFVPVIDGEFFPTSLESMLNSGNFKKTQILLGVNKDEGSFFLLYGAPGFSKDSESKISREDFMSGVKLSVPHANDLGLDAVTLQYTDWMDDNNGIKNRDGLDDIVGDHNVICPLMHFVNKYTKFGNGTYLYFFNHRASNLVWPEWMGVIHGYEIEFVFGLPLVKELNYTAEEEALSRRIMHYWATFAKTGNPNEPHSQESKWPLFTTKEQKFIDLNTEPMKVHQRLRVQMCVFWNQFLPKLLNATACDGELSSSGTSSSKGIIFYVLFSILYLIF

SMILES	Ki ([1]; TcAChE 200 pM, ATCh 35 µM, initial thiocholine-TNB 0 to ~150 µM, competitive, read-out: Ki for product inhibition)	inhibition mechanism ([1]; fit of full progress curves)	IC50 ([2]; highest of 15 BRENDA entries)	IC50 ([2]; lowest of 15 BRENDA entries)	Ki ([3]; human brain AChE, competitive inhibition, 1976)	Ki ([3]; recombinant form of HuAChE, 2003)	Ki [4]	times weaker AChE inhibitor than donepezil [5]
C[N+](C)(C)CCSSc1ccc([N+](=O)[O-])c(C(=O)[O-])c1 [thiocholine-TNB, thiocholine-thionitrobenzoic acid]	21500 ± 380 nM	competitive inhibition mechanism						
COc1ccc2c3c1O[C@H]1C[C@@H](O)C=C[C@@]31CCN(C)C2 [GAL, galantamine]			[…]	[…]	52 nM	520 nM	200 nM	[…]
